This note sets out measurements from US7019000B1, “Method of treating a disease condition caused or exacerbated by an HPV” (Institute of Molecular & Cell Biology, priority 1998, dated 2006).

Experiment [1] relates to HPV containing cell lines as HeLa, SiHa and Caski, compared to HPV-negative cell lines MCF7, HEPG2, (HaCat, HT3, 444). In words: Cell viability (WST1 assay), panel of HPV-positive and HPV-negative cell lines. In kind it is cell-based, human. The following applies: 50 μM in cell culture. Here is the method:
Zinc finger proteins are required for maintenance of cell viability. Preferably, the compounds for use in the present invention are specific in their ability to affect the viability of MPV containing cells, with little or no cytotoxic effects on the cellular functioning of healthy non-MPV containing cells. The viability of MPV-infected cells (and non infected cells) in the presence of compounds of Formulae (I) or (II) can be measured by incubating with the tetrazolium salt WST1 (Roche Molecular Biochemicals, Manneheim Germany) and measuring the absorption readings thereof (WST1 assay).
All cell lines were obtained from the American Type Culture Collection (Manassas, Va.) unless otherwise noted. SiHa (human cervical epithelial tumor line, HPV16-positive), CaSki (human cervical epithelial tumor line, HPV16-positive), HaCat (immortalized human skin epithelial cell line, HPV-negative), HeLa (human cervical epithelial tumor line, HPV18-positive), 444 (hybrid of HeLa and fibroblast, HPV18-positive) obtained from Eric Stanbridge (Universitv of California, Irvine), MCF7 (human mammary epithelial tumor cell line, HPV-negative), HT3 (human cervical epithelial tumor cell line, HPV-negative) was obtained from the German Cancer Research Institute/DKFZ-Heidelberg, and HepG2, (human liver epithelial tumor cell line, HPV-negative), were grown in Dulbecco's modified Eagle medium (DMEM) supplemented with 10% fetal calf serum, 100 U penicillin and 1000 U streptomycin. Cells were allowed to attach to the surface of microwell dishes overnight and subsequently, incubated with medium containing the zinc ejecting compounds at the concentrations (10–100 μM). Viability of the cells was scored by measuring the absorption of the tetrazolium salt WST1 (Roche Molecular Biochemicals, Mannheim, Germany) in an Elisa-plate reader (Tecan, Salzburg, Austria) at a wavelength of 450 nm and a reference wavelength of 630 nm.
A total of 10 000 cells per well were plated on 24 well plates, after attachment overnight, they were treated 3 times in 3 days with C16 at 10 μM and 50 μM. The activity of C16 was also compared with that of C4 (azodicarbonamide) which causes ejection of zinc from HIV-1 NCp7 and is currently used in clinical trials for the treatment of AIDS.

Experiment [2] concerns the target T1, binding of E6 with E6AP and E6BP (Human papillomavirus type 16, UniProt P03126).
T1 construct: The full length HPV16 E6 gene was amplified via polymerase chain reaction and cloned in the vector pGeX4T2; made in house; host or cells: E. coli strain AB1899
Set-up: species or system HPV-16. The following applies: 400 μM compound, 2 hrs at room temperature, GST-E6 7 μM in 10 mM GSH. An excerpt: BIACORE allows real time analysis of bimolecular interactions without the need for isotopic or enzymatic labelling. BIACORE technology is based on the optical surface plasmon resonance (SPR), a technique that allows for detecting small changes in the refractive index on the surface of a thin gold film coated with a dextran matrix. Typically, one of the binding partners (termed the ligand) is covalently linked to the dextran matrix, while the other partner (termed the analyte) is introduced in a flow passing over the surface. The change in refractive index resulting from the interaction of the molecules is expressed in resonance units (RU): a SPR response of 1000 RU corresponds to a change of the surface concentration of the analyte of 1 ng protein/mm^2. GST-E6AP and GST-E6BP were used as ligands and GSTE6 was used as the analyte. […] Further controls included using the dextran matrix alone or GST as the ligand.
Binding of GST-E6 to GST-E6BP, GST-E6AP and GST was monitored by surface plasmon resonance (SPR) on a BIACORE 2000 machine (Biacore AB, Uppsala, Sweden). […] Typically 6000–10000 RU of GST, E6BP and E6AP were immobilized on three difference flowcells. Aliquots of purified HPV-16 GST-E6 (7 μM in 10 mM GSH, 50 mM Tris/PBS buffer, pH 8.2) were incubated with either 400 μM compound, or 5 mM EDTA, or 0.6% (170 mM) H2O2 for 2 hrs at room temperature. Then 10 μl of sample was injected at 1 μl/min over the three immobilized ligands using the sequential flow mode. The interactions between GST-E6 and ligands were monitored by the change of resonance signal in arbitrary units (RU).

In experiment [3] the target is T2, HPV-16-E6 (recombinant GST-E6 protein) (Human papillomavirus type 16, UniProt P03126).
T2 construct: The full length HPV16 E6 gene was amplified via polymerase chain reaction and cloned in the vector pGeX4T2; made in house; host or cells: E. coli strain AB1899
T2 sequence (P03126 whole entry): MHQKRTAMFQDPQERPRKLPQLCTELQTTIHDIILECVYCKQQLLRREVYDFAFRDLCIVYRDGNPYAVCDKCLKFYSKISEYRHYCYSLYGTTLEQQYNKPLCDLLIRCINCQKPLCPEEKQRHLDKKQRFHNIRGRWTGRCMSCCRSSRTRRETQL
As to the kind of experiment: biochemical. The format is biochemical. The following applies: read-out: TSQ % (% values of Zinc release). An excerpt:
Where the chelated metal is zinc, zinc release can be measured as an increase in the fluorescence of the zinc-selective fluorophore TSQ (N-(6-methoxy-8-quinolyl)-p-toluenesulfonamide) (18) in the presence of the protein and the active compound (TSQ assay).
In such an assay, the increase in fluorescence measured can be described as a percentage of the increase in fluorescence observed for a positive control compound which provides 100% zinc release. A suitable positive control compound is H2O2. Preferred compounds which may be useful in the present invention are those which release at least 30% of the chelated zinc as measured by the TSQ assay. Particularly preferred compounds for use in the present invention are those which release at least 40% of the chelated zinc, more preferably at least 50%.
In earlier studies, reduced glutathione (GSH) was required to elute recombinant glutathione sulfhydryl transferase E6 (recombinant (GST-E6)) protein during the purification process. However, the reducing activity of the GSH sulfhydryl groups protected GST-E6 protein from the chemical attack by agents, such as the disulphide based organic compounds of Formula (I) and (II). […] Individual assays were done in the presence of 9 μg GST-E6 protein, corresponding to a concentration of 1 μM GST-E6 protein and 2 μM bound zinc, assuming the presence of two Zn ions per protein.
Release of zinc from HPV-16-E6 was monitored by the change in fluorescence of the zinc-selective fluorophore TSQ (N-6-methoxy-8-quinolyl)-p-toluenesulfonamide), (Molecular Probes, Eugene, Oreg.) by modification of published procedures (25, 26, 27). In a total reaction volume of 200 μl, 9 μg (1 μM) recombinant GST-E6 protein (corresponding to a concentration of 1 μM), bound to glutathione-sepharose beads, were incubated with 10 μM of each compound or 0.6% (170 mM) H2O2 in TSQ-assay buffer (10 mM sodium phosphate buffer pH7.0, 10% glycerol) for 2 hours at room temperature (200 μl total volume in 96-well plates). Immediately after addition of 100 μM TSQ, the increase in fluorescence was measured on a SLT Fluostar (355 nm excitation filter and 460 nm emission filter, Tecan, Salzburg).
Values given are % values of Zinc release. The relative fluorescence units (RFU) were normalized to the amount of zinc released by H2O2 (regarded as 100%). The concentration of compound used was 10 μM for C27–C35, 13 μM for C37–C83, H2O2 was used at 0.3% for C27–C35 and 0.2% for C37–C83.

T1 sequence (P03126 whole entry): as above

For `C1CCN(SSN2CCCC2)C1` [Compound C42], the WST1 result in experiment [1] is reported as “+”. Moreover, the “BIACORE (E6BP/E6AP)” value in experiment [2] was “+ (compound interferes in binding of E6 with E6AP and E6BP, binding is less than 50% of the corresponding E6-DMSO value.)”. Moreover, in experiment [3], the activation at 13 µM stood at 50.5%.
